The test system of one data set is G-361 cells. Nature of the data set: Cell viability (MTT assay), G-361 melanoma cells. It is filed as cell-based, human. The settings on record: for IC50: Homo sapiens, read-out: IC50 ± SD for Cell Viability, G-361. The source says: (§1) Cytotoxicity of the plant extracts, berberine, chelerythrine, chelidonine, protopine, and sanguinarine were examined against a panel of three melanoma cell lines (A375, G-361, SK-MEL-3) characterized by different degrees of genetic complexity. Human skin fibroblasts (CRL-1474) were used in order to evaluate the effect of Saguinaria canadensis extracts against normal (i.e., non-cancerous) cells. The investigated cell lines were obtained from American Type Culture Collection (ATCC; Manassas, VA, USA). A375 and CRL-1474 cells were cultured in Dulbecco’s Modified Eagle’s Medium (DMEM) (Sigma Aldrich, St. Louis, MO, USA), supplemented with 10% heat inactivated fetal bovine serum (FBS), penicillin (100 U/mL), and streptomycin (100 µg/mL). Human melanoma SK-MEL-3 and G-361 cells were maintained in McCoy’s 5A Medium (Sigma Aldrich, St. Louis, MO, USA) supplemented with 15% (for SK-MEL-3) or 10% (for G-361) FBS, penicillin (100 U/mL), and streptomycin (100 µg/mL). The cells were maintained at 37 °C in a 5% CO2 atmosphere. The dried plant extracts and standards ([…]) were dissolved in DMSO, in order to obtain stock solutions at concentrations of 50 mg/mL. At the day of the experiment, the suspension of cells (1 × 10^5 cells/mL) in the respective medium was applied to a 96-wellplate at 100 µL per well. After 24 h of incubation, the medium was removed from the wells and replaced by increasing concentrations of plant extracts or standards in medium containing 2% FBS. The control cells were only cultured with a medium containing 2% FBS. Cytotoxicity of DMSO was also checked at concentrations present in respective dilutions of stock solutions. After 24 h of incubation, 15 µL MTT working solution (5 mg/mL in PBS) was added to each well. The plate was incubated for 3 h. Subsequently, 100 µL of 10% SDS solution was added to each well. Cells were incubated overnight at 37 °C to dissolve the precipitated formazan crystals. The concentration of the dissolved formazan was evaluated by measuring the absorbance at λ = 570 nm, using a microplate reader (Epoch, BioTek Instruments, Inc., Winooski, VT, USA). Two independent experiments were performed in triplicates. The results of the MTT assay were expressed as mean ± SD. […] IC50 values of the investigated extracts and alkaloid standards were calculated using the IC50 calculator (www.IC50.tk (accessed on 22 January 2021)).
(§2) To determine the selectivity index (SI), IC50 values for human normal fibroblasts was obtained in the same conditions as that used for cancer cell lines. Selectivity index of each compound was determined by calculating the ratio of IC50 values obtained for human normal fibroblasts and cancer cell lines.
(Tetrazolium assays rely on reduction of a dye to a coloured formazan, in cell work by metabolically active cells.)

For data set [1] the following is noted: source not given; cited from earlier work.
Another data set concerns A375 cells. The data set is described as follows: Cell viability (MTT assay), A375 melanoma cells. It is filed as cell-based, human. As to conditions: for IC50: Homo sapiens, read-out: IC50 ± SD for Cell Viability, A375.
Text: as §1, §2

For data set [2], the system named is SK-MEL-3 cells. Nature of the data set: Cell viability (MTT assay), SK-MEL-3 melanoma cells. It is filed as cell-based, human. The settings on record: for IC50: Homo sapiens, read-out: IC50 ± SD for Cell Viability, SK-MEL-3.
Text: as §1, §2

For data set [3], the system named is melanoma cell lines (A375, G-361, SK-MEL-3). Nature of the data set: Cell viability (MTT assay), all three melanoma cell lines taken together. It is filed as cell-based, human. The source says: Cytotoxicity of the plant extracts, berberine, chelerythrine, chelidonine, protopine, and sanguinarine were examined against a panel of three melanoma cell lines (A375, G-361, SK-MEL-3) characterized by different degrees of genetic complexity. Human skin fibroblasts (CRL-1474) were used in order to evaluate the effect of Saguinaria canadensis extracts against normal (i.e., non-cancerous) cells. The investigated cell lines were obtained from American Type Culture Collection (ATCC; Manassas, VA, USA). A375 and CRL-1474 cells were cultured in Dulbecco’s Modified Eagle’s Medium (DMEM) (Sigma Aldrich, St. Louis, MO, USA), supplemented with 10% heat inactivated fetal bovine serum (FBS), penicillin (100 U/mL), and streptomycin (100 µg/mL). Human melanoma SK-MEL-3 and G-361 cells were maintained in McCoy’s 5A Medium (Sigma Aldrich, St. Louis, MO, USA) supplemented with 15% (for SK-MEL-3) or 10% (for G-361) FBS, penicillin (100 U/mL), and streptomycin (100 µg/mL). […] The concentration of the dissolved formazan was evaluated by measuring the absorbance at λ = 570 nm, using a microplate reader (Epoch, BioTek Instruments, Inc., Winooski, VT, USA). […] The results of the MTT assay were expressed as mean ± SD. […] IC50 values of the investigated extracts and alkaloid standards were calculated using the IC50 calculator (www.IC50.tk (accessed on 22 January 2021)).

Data set [4] concerns SK-MEL-3 cells. The data set is described as follows: Cell proliferation, BrdU incorporation assay. It is filed as cell-based, human. The settings on record: 24 h incubation, 0.25–100 µg/mL. Here is the method:
The antiproliferative effect of S. canadensis extracts was measured by means of the BrdU assay, which indicates the rate of incorporation of 5′-bromo-2′-deoxy-uridine (BrdU) during DNA biosynthesis. In brief, SK-MEL-3 cells were plated in 96-well plates (NUNC, Roskilde, Denmark) at the density of 5 × 10^4 cells/mL. The next day, cells were exposed to increased concentrations (0.25–100 µg/mL) of S. canadensis extracts or cisplatin or a fresh culture medium. Cell proliferation was examined after 24 h incubation, according to the manufacturer’s protocol (Cell Proliferation ELISA BrdU, Roche Diagnostics GmbH, Penzberg, Germany). IC50 values of the investigated extracts and cisplatin were calculated using IC50 calculator [www.IC50.tk (accessed on 11 March 2021)].
On the technique in general: Dividing cells build labelled thymidine or BrdU into new DNA.

[5] abbreviates: G-361, MTT, 24 h exposure, medium with 2% FBS.
Where [6] appears, read: A-375, MTT, 24 h exposure, medium with 2% FBS.
[7] abbreviates: SK-MEL3, MTT, 24 h exposure, medium with 2% FBS.
Where [8] appears, read: MTT, 24 h exposure, medium with 2% FBS.

We go through eight molecules from article PMC8003779, “Determination of Cytotoxic Activity of Sanguinaria canadensis Extracts against Human Melanoma Cells and Comparison of Their Cytotoxicity with Cytotoxicity of Some Anticancer Drugs” (Molecules, 2021).

Values after ≈ are worked out from the molar mass of the structure shown. Read-outs that look alike come from different tables or passages of the source.

As a reminder, the IC50 is the concentration needed to halve the response being measured. As usually defined, the Log P is the decadic logarithm of the partition coefficient of the neutral form, usually between octanol and water. By pKa is commonly meant the pH at which an ionisable group is half protonated.

Take `COc1ccc2cc3[n+](cc2c1OC)CCc1cc2c(cc1-3)OCO2` [Berberine]: the IC50 came to 21 ± 3.25 µg/mL in the data set on G-361 cells (setting [5]), 51.6 ± 4.84 µg/mL in the data set with A375 cells (setting [6]) and 41 ± 5.36 µg/mL with SK-MEL-3 cells [2] (setting [7]). Further, the lipophilicity (Log P) in data set [1] was −1.3. The pKa in data set [1] is given as −4.4.

On to `COc1ccc2c(c[n+](C)c3c4cc5c(cc4ccc23)OCO5)c1OC` [Chelerythrine], for which the IC50 in the data set with G-361 cells (setting [5]) is 0.46 ± 0.07 µg/mL; with A375 cells (setting [6]), 0.19 ± 0.04 µg/mL; in the data set on SK-MEL-3 cells [2] (setting [7]), 0.14 ± 0.004 µg/mL. The “Log P” value in data set [1] is given as −0.88. The pKa in data set [1] is −4.4.

`CN1Cc2c(ccc3c2OCO3)[C@@H]2[C@H]1c1cc3c(cc1C[C@@H]2O)OCO3` [Chelidonine]: the IC50 with G-361 cells (G-361, 24 h) is greater than 50 µg/mL; in the data set on A375 cells (A-375, 24 h), greater than 50 µg/mL; with SK-MEL-3 cells [2] (SK-MEL3, 24 h) it was greater than 50 µg/mL; in data set [3] (Homo sapiens, 24 h, read-out: IC50, cell viability, across all tested melanoma cell lines, A375, G-361, SK-MEL-3) it was greater than 50 µg/mL. The “Log P” value in data set [1] is 2.05. Also, the pKa in data set [1] is given as 5.73.

Consider `N.N.[Cl][Pt][Cl]` [Cisplatin], for which, in the data set with SK-MEL-3 cells [4], the “IC50 ± SD for Cell Proliferation Measured by BrdU Incorporation in SK-MEL-3 Cells” value worked out at 24.84 ± 3.60 µg/mL. The “IC50 ± SD for Cell Viability, G-361” value in the data set on G-361 cells (setting [8]) was 11.53 ± 1.46 µg/mL. Further, in the data set with A375 cells (setting [8]), the “IC50 ± SD for Cell Viability, A375” value is given as 10.62 ± 1.04 µg/mL. Further, in the data set on SK-MEL-3 cells [2] (setting [8]), the “IC50 ± SD for Cell Viability, SK-MEL-3” value is given as 14.42 ± 1.61 µg/mL.

Consider `COc1cc([C@@H]2c3cc4c(cc3[C@@H](O[C@@H]3O[C@@H]5CO[C@@H](C)O[C@H]5[C@H](O)[C@H]3O)[C@H]3COC(=O)[C@H]23)OCO4)cc(OC)c1O` [Etoposide], for which the figures for the IC50 with G-361 cells (setting [5]), with A375 cells (setting [6]) and in the data set on SK-MEL-3 cells [2] (setting [7]) were 52.3 ± 3.86 µg/mL (≈ 88.9 µM), 92.3 ± 4.58 µg/mL (≈ 157 µM) and greater than 200 µg/mL, respectively.

As for `NC(=O)NO` [Hydroxyurea], the “IC50 ± SD for Cell Viability, G-361” value in the data set on G-361 cells (setting [8]) is greater than 200 µg/mL. For the same molecule, the “IC50 ± SD for Cell Viability, A375” value in the data set on A375 cells (setting [8]) is reported as greater than 200 µg/mL. For the same molecule, in the data set on SK-MEL-3 cells [2] (setting [8]), the “IC50 ± SD for Cell Viability, SK-MEL-3” value is given as greater than 200 µg/mL.

`C[n+]1cc2c3c(ccc2c2ccc4cc5c(cc4c21)OCO5)OCO3` [Sanguinarine]: the IC50 came out at 0.17 ± 0.02 µg/mL in the data set on G-361 cells (G-361, 24 h); 0.11 ± 0.003 µg/mL in the data set on A375 cells (A-375, 24 h); 0.54 ± 0.16 µg/mL in the data set on SK-MEL-3 cells [2] (SK-MEL3, 24 h). Besides, the “Log P” value in data set [1] was −0.94. For the same molecule, the pKa in data set [1] was −4.5.

Regarding Protopine, the “IC50 ± SD for Cell Viability, G-361” value in the data set with G-361 cells (setting [8]) is listed as greater than 50 µg/mL. Besides, in data set [1], the “Log P” value is 2.59 and the pKa is given as 4.95. For the same molecule, the “IC50 ± SD for Cell Viability, A375” value in the data set with A375 cells (setting [8]) is given as greater than 50 µg/mL. The “IC50 ± SD for Cell Viability, SK-MEL-3” value with SK-MEL-3 cells [2] (setting [8]) was greater than 50 µg/mL. Moreover, the “IC50, cell viability, across all tested melanoma cell lines” value in data set [3] (A375, G-361, SK-MEL-3, 24 h) is reported as “more than 50 µg/mL”.
